{"source": "patent US20260250290A1", "about": "(BRISTOL-MYERS SQUIBB COMPANY, priority 2023, published 2026)", "note": "pIC50: −log10 of the molar value."}
{"target": "T1, full length SGK1 (Homo sapiens, UniProt O00141)", "T1 construct": "125 μM full length SGK1 (Life Technologies Part #PR7358A); purchased Life Technologies PR7358A", "T1 sequence (O00141 1-431)": "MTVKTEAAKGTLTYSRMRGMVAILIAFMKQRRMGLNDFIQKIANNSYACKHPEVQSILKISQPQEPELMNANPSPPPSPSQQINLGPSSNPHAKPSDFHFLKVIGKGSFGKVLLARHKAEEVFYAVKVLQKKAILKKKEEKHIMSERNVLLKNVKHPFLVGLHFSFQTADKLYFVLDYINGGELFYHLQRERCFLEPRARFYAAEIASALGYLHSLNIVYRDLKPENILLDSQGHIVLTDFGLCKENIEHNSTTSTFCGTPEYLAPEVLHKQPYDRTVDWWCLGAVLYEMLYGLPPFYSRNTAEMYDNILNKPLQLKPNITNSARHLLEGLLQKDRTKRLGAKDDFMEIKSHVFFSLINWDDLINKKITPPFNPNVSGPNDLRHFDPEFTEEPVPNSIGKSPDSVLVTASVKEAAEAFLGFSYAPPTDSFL", "test": "SGK1 inhibition Assay A (Caliper LabChip electrophoretic separation of fluorescent peptide substrate and phosphorylated product)", "format": "biochemical", "conditions": "Assay A; 20 μM ATP, 40 min incubation; read-out: SGK1 IC50"}
{"compound": "CC(=O)N1CCC(Oc2cc(C(F)F)sc2C(=O)N[C@@H]2CCCN(c3cc(C4=CCN(C(C)=O)C4)n4ncnc(N)c34)C2)CC1", "note": "[Example 412, (R)-N-(1-(7-(1-acetyl-2,5-dihydro-1H-pyrrol-3-yl)-4-aminopyrrolo[2,1-f][1,2,4]triazin-5-yl)piperidin-3-yl)-3-((1-acetylpiperidin-4-yl)oxy)-5-(difluoromethyl)thiophene-2-carboxamide]", "pIC50": 7.30}
{"compound": "CC(=O)N1CCC(Oc2cc(C(F)F)sc2C(=O)N[C@@H]2CCCN(c3cc(-c4cncnc4)n4ncnc(N)c34)C2)CC1", "note": "[Example 413, (R)-3-((1-acetylpiperidin-4-yl)oxy)-N-(1-(4-amino-7-(pyrimidin-5-yl)pyrrolo[2,1-f][1,2,4]triazin-5-yl)piperidin-3-yl)-5-(difluoromethyl)thiophene-2-carboxamide]", "pIC50": 6.95}
{"compound": "CC(=O)N1CCC(Oc2cc(C(F)F)sc2C(=O)N[C@@H]2CCCN(c3cc(-c4ccc(=O)n(CC(F)F)c4)n4ncnc(N)c34)C2)CC1", "note": "[Example 414, (R)-3-((1-acetylpiperidin-4-yl)oxy)-N-(1-(4-amino-7-(1-(2,2-difluoroethyl)-6-oxo-1,6-dihydropyridin-3-yl)pyrrolo[2,1-f][1,2,4]triazin-5-yl)piperidin-3-yl)-5-(difluoromethyl)thiophene-2-carboxamide]", "pIC50": 7.96}
{"compound": "CC(=O)N1CCC(Oc2cc(C(F)F)sc2C(=O)N[C@@H]2CCCN(c3cc(-c4cnc(C#N)c(C)c4)n4ncnc(N)c34)C2)CC1", "note": "[Example 415, (R)-3-((1-acetylpiperidin-4-yl)oxy)-N-(1-(4-amino-7-(6-cyano-5-methylpyridin-3-yl)pyrrolo[2,1-f][1,2,4]triazin-5-yl)piperidin-3-yl)-5-(difluoromethyl)thiophene-2-carboxamide]", "pIC50": 8.10}
{"compound": "CC(=O)N1CCC(Oc2cc(C(F)F)sc2C(=O)N[C@@H]2CCCN(c3cc(-c4ccc(C#N)nc4)n4ncnc(N)c34)C2)CC1", "note": "[Example 416, (R)-3-((1-acetylpiperidin-4-yl)oxy)-N-(1-(4-amino-7-(6-cyanopyridin-3-yl)pyrrolo[2,1-f][1,2,4]triazin-5-yl)piperidin-3-yl)-5-(difluoromethyl)thiophene-2-carboxamide]", "pIC50": 7.54}
{"compound": "COC(=O)N1CC=C(c2cc(N3CCC[C@@H](NC(=O)c4sc(Cl)cc4OCC(=O)N4CCCC4)C3)c3c(N)ncnn23)C1", "note": "[Example 418, Methyl (R)-3-(4-amino-5-(3-(5-chloro-3-(2-oxo-2-(pyrrolidin-1-yl)ethoxy)thiophene-2-carboxamido)piperidin-1-yl)pyrrolo[2,1-f][1,2,4]triazin-7-yl)-2,5-dihydro-1H-pyrrole-1-carboxylate]", "pIC50": 6.97}
{"compound": "Nc1ncnn2c(-c3cncnc3)cc(N3CCC[C@@H](NC(=O)c4sc(Cl)cc4OCC(=O)N4CCCC4)C3)c12", "note": "[Example 419, (R)-N-(1-(4-amino-7-(pyrimidin-5-yl)pyrrolo[2,1-f][1,2,4]triazin-5-yl)piperidin-3-yl)-5-chloro-3-(2-oxo-2-(pyrrolidin-1-yl)ethoxy) thiophene-2-carboxamide]", "pIC50": 6.92}
{"compound": "N#Cc1ccc(-c2cc(N3CCC[C@@H](NC(=O)c4sc(Cl)cc4OCC(=O)N4CCCC4)C3)c3c(N)ncnn23)cn1", "note": "[Example 420, (R)-N-(1-(4-amino-7-(6-cyanopyridin-3-yl)pyrrolo[2,1-f][1,2,4]triazin-5-yl)piperidin-3-yl)-5-chloro-3-(2-oxo-2-(pyrrolidin-1-yl)ethoxy) thiophene-2-carboxamide]", "pIC50": 7.89}
{"compound": "Cc1cc(-c2cc(N3CCC[C@@H](NC(=O)c4sc(Cl)cc4OCC(=O)N4CCCC4)C3)c3c(N)ncnn23)cnc1C#N", "note": "[Example 421, (R)-N-(1-(4-amino-7-(6-cyano-5-methylpyridin-3-yl)pyrrolo[2,1-f][1,2,4]triazin-5-yl)piperidin-3-yl)-5-chloro-3-(2-oxo-2-(pyrrolidin-1-yl)ethoxy) thiophene-2-carboxamide]", "pIC50": 7.96}
{"compound": "Nc1ncnn2c(-c3ccc(=O)n(CC(F)F)c3)cc(N3CCC[C@@H](NC(=O)c4sc(Cl)cc4OCC(=O)N4CCCC4)C3)c12", "note": "[Example 422, (R)-N-(1-(4-amino-7-(1-(2,2-difluoroethyl)-6-oxo-1,6-dihydropyridin-3-yl)pyrrolo[2,1-f][1,2,4]triazin-5-yl)piperidin-3-yl)-5-chloro-3-(2-oxo-2-(pyrrolidin-1-yl)ethoxy) thiophene-2-carboxamide]", "pIC50": 7.82}
{"compound": "COC(=O)N1CC=C(c2cc(N3CCC[C@@H](NC(=O)c4sc(C(F)F)cc4OCCNC(C)=O)C3)c3c(N)ncnn23)C1", "note": "[Example 423, Methyl (R)-3-(5-(3-(3-(2-acetamidoethoxy)-5-(difluoromethyl)thiophene-2-carboxamido)piperidin-1-yl)-4-aminopyrrolo[2,1-f][1,2,4]triazin-7-yl)-2,5-dihydro-1H-pyrrole-1-carboxylate]", "pIC50": 7.52}
{"compound": "CC(=O)NCCOc1cc(C(F)F)sc1C(=O)N[C@@H]1CCCN(c2cc(-c3cncnc3)n3ncnc(N)c23)C1", "note": "[Example 424, (R)-3-(2-acetamidocthoxy)-N-(1-(4-amino-7-(pyrimidin-5-yl)pyrrolo[2,1-f][1,2,4]triazin-5-yl)piperidin-3-yl)-5-(difluoromethyl)thiophene-2-carboxamide]", "pIC50": 7.31}
{"compound": "CC(=O)NCCOc1cc(C(F)F)sc1C(=O)N[C@@H]1CCCN(c2cc(-c3ccc(C#N)nc3)n3ncnc(N)c23)C1", "note": "[Example 425, (R)-3-(2-acetamidocthoxy)-N-(1-(4-amino-7-(6-cyanopyridin-3-yl)pyrrolo[2,1-f][1,2,4]triazin-5-yl)piperidin-3-yl)-5-(difluoromethyl)thiophene-2-carboxamide]", "pIC50": 7.85}
{"compound": "CC(=O)NCCOc1cc(C(F)F)sc1C(=O)N[C@@H]1CCCN(c2cc(-c3cnc(C#N)c(C)c3)n3ncnc(N)c23)C1", "note": "[Example 426, (R)-3-(2-acetamidoethoxy)-N-(1-(4-amino-7-(6-cyano-5-methylpyridin-3-yl)pyrrolo[2,1-f][1,2,4]triazin-5-yl)piperidin-3-yl)-5-(difluoromethyl)thiophene-2-carboxamide]", "pIC50": 7.52}
{"compound": "CC(=O)NCCOc1cc(C(F)F)sc1C(=O)N[C@@H]1CCCN(c2cc(-c3ccc(=O)n(CC(F)F)c3)n3ncnc(N)c23)C1", "note": "[Example 427, (R)-3-(2-acetamidoethoxy)-N-(1-(4-amino-7-(1-(2,2-difluoroethyl)-6-oxo-1,6-dihydropyridin-3-yl)pyrrolo[2,1-f][1,2,4]triazin-5-yl)piperidin-3-yl)-5-(difluoromethyl)thiophene-2-carboxamide]", "pIC50": 7.92}
{"compound": "COC(=O)NCCOc1cc(C(F)F)sc1C(=O)N[C@@H]1CCCN(c2cc(C3=CCN(C(=O)OC)C3)n3ncnc(N)c23)C1", "note": "[Example 428, Methyl (R)-3-(4-amino-5-(3-(5-(difluoromethyl)-3-(2-((methoxycarbonyl)amino)ethoxy)thiophene-2-carboxamido)piperidin-1-yl)pyrrolo[2,1-f][1,2,4]triazin-7-yl)-2,5-dihydro-1H-pyrrole-1-carboxylate]", "pIC50": 7.68}
{"compound": "COC(=O)NCCOc1cc(C(F)F)sc1C(=O)N[C@@H]1CCCN(c2cc(-c3cncnc3)n3ncnc(N)c23)C1", "note": "[Example 429, methyl (R)-(2-((2-((1-(4-amino-7-(pyrimidin-5-yl)pyrrolo[2,1-f][1,2,4]triazin-5-yl)piperidin-3-yl)carbamoyl)-5-(difluoromethyl)thiophen-3-yl)oxy)ethyl)carbamate]", "pIC50": 7.22}
{"compound": "COC(=O)NCCOc1cc(C(F)F)sc1C(=O)N[C@@H]1CCCN(c2cc(-c3cnc(C#N)c(C)c3)n3ncnc(N)c23)C1", "note": "[Example 431, methyl (R)-(2-((2-((1-(4-amino-7-(6-cyano-5-methylpyridin-3-yl)pyrrolo[2,1-f] [1,2,4]triazin-5-yl)piperidin-3-yl)carbamoyl)-5-(difluoromethyl)thiophen-3-yl)oxy)ethyl)carbamate]", "pIC50": 7.85}
{"compound": "CC(=O)NCCOc1cc(C(F)F)sc1C(=O)N[C@@H]1CCCN(c2cc(-c3ccc(=O)n(CC(F)F)c3)n3ncnc(N)c23)C1", "note": "[Example 432, (R)-3-(2-acetamidoethoxy)-N-(1-(4-amino-7-(1-(2,2-difluoro-ethyl)-6-oxo-1,6-dihydropyri-din-3-yl)pyrrolo[2,1-f] [1,2,4]triazin-5-yl)piperidin-3-yl)-5-(difluoromethyl)thio-phene-2-carboxamide]", "pIC50": 8.10}
{"compound": "CC(=O)N1CC=C(c2cc(N3CCC[C@@H](NC(=O)c4sc(C(F)F)cc4OC4COC4)C3)c3c(N)ncnn23)C1", "note": "[Example 433, (R)—N-(1-(7-(1-acetyl-2,5-dihydro-1H-pyrrol-3-yl)-4-aminopyrrolo[2,1-f][1,2,4]triazin-5-yl)piperidin-3-yl)-5-(difluoromethyl)-3-(oxetan-3-yloxy)thiophene-2-carboxamide]", "pIC50": 7.74}
{"compound": "COC(=O)N1CC=C(c2cc(N3CCC[C@@H](NC(=O)c4sc(C(F)F)cc4OC4COC4)C3)c3c(N)ncnn23)C1", "note": "[Example 434, methyl (R)-3-(4-amino-5-(3-(5-(difluoromethyl)-3-(oxetan-3-yloxy)thiophene-2-carboxamido)piperidin-1-yl)pyrrolo[2,1-f][1,2,4]triazin-7-yl)-2,5-dihydro-1H-pyrrole-1-carboxylate]", "pIC50": 8.00}
{"compound": "N#Cc1ccc(-c2cc(N3CCC[C@@H](NC(=O)c4sc(C(F)F)cc4OC4COC4)C3)c3c(N)ncnn23)cn1", "note": "[Example 435, (R)-N-(1-(4-amino-7-(6-cyanopyridin-3-yl)pyrrolo[2,1-f][1,2,4]triazin-5-yl)piperidin-3-yl)-5-(difluoromethyl)-3-(oxetan-3-yloxy)thiophene-2-carboxamide]", "pIC50": 8.15}
